We go through 17 molecules from US6500835B2, “Preventive or therapeutic drugs for fibrosis containing chymase inhibitors as the active ingredient” (Suntory Limited, priority 2000, dated 2002).

Counter-ions that a name gives are not always drawn.

As a reminder, the IC50 is the concentration that inhibits the measured activity by half. A lower IC50 goes with inhibition by little substance.

The target in experiment [1] is T1, Human heart chymase (Homo sapiens, UniProt P23946).
T1 construct: Human heart chymase was purified according to the method of Urata et al; from tissue; host or cells: human heart
T1 sequence (P23946 22-247): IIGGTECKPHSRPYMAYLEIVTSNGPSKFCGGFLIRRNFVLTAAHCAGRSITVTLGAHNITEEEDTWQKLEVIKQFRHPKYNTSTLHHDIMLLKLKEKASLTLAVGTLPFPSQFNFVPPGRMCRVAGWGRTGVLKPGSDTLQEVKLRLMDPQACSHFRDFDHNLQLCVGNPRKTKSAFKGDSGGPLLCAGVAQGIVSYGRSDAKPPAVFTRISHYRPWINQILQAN
Kind of experiment: Measurement of chymase inhibitory activity (Suc-Ala-Ala-Pro-Phe-MCA substrate). Type of experiment: biochemical. To be noted: 30° C., 10 min preincubation. The method, then: Human heart chymase was purified according to the method of Urata et al. (J. Biol. Chem., 1990, 265, 22348). The inhibitory activity off the compound of the present invention was determined as follows. Purified enzyme was diluted with 0.1M tris HCl buffer (pH=7.5), 1M sodium chloride, and 0.01% Triton X-100 to obtain an enzyme solution having appropriate concentrations. Suc-Ala-Ala-Pro-Phe-MCA (Peptide Institute Inc.) was dissolved in 10 mM dimethyl sulfoxide (hereinafter referred to as DMSO) and diluted 20-fold with 0.1 M Tris-HCl buffer (pH 7.5) containing 1 M sodium chloride and 0.01% Triton X-100 to an appropriate concentration to prepare substrate solution.
5 μl of the test sample in DMSO was added to 75 μl of the enzyme solution and preincubated at 30° C. for 10 minutes. Then, 20 μl of the subs rate solution was added to the test sample-enzyme mixture, and incubated at 30° C. Ten minutes later, 50 μl of 30% acetic acid was added to stop the enzymatic reaction, and the amount of AMC formed was determined using a fluorophotometer. At the same time, 5 μl of DMSO in stead of the test sample was added and reacted simultaneously as a control. The inhibitory activity to human chymase was calculated based on the value of the control, and then the inhibition percentage and the 50% inhibition concentration (IC50) were determined.

The test system of experiment [2] is bleomycin-induced pulmonary fibrosis in mice. Kind of experiment: Bleomycin-induced pulmonary fibrosis model: effect of chymase inhibitor on lung hydroxyproline. Type of experiment: in vivo, ICR mice. As to conditions: five days a week over 2 weeks, bleomycin 0.08 mg. Here is the method:
(§1) Pulmonary fibrosis was induced by intratracheal administration of bleomycin (Nippon Kayaku) to 10 week old male ICR mice (Charles River Japan) under anesthesia (n=10). That is, bleomycin (0.04 mg or 0.08 mg) was suspended in 50 μl of saline and administered into the airways using a 100 μl syringe (made by Hamilton Co.) Two weeks after the administration of bleomycin, the lungs were excised and the amount of hydroxyproline, an indicator of tissue collagen, was assayed according to the method as described previously (Anal. Biochem. 19, 249, 1967). Further, the amount of hydroxyproline was expressed as an amount per lung. Further, mice similarly administered saline instead of bleomycin were used as a control (n=10).
Pulmonary fibrosis was induced in accordance with the method described in Example 5 (n=10) and the amount of hydroxyproline in pulmonary tissue was assayed in the same way as in Example 5 in order to investigate the effect of a chymase inhibitor (Compound 34) on pulmonary fibrosis. Further, the chymase inhibitor was suspended in saline containing 0.5% hydroxypropyl cellulose (HPC/saline) and administered intraperitoneally at a dose of 10 mg/kg or 50 mg/kg once a day for five days a week over 2 weeks, starting immediately after the bleomycin administration. […]

For experiment [3], the system named is pulmonary chymase. Kind of experiment: Change in pulmonary chymase activity after intratracheal bleomycin. Type of experiment: in vivo, mice. To be noted: bleomycin 0.08 mg intratracheal, 2 weeks after administration.
In experiment [4] the test system is ICR mice. Kind of experiment: Change in hydroxyproline content in lung after intratracheal bleomycin. To be noted: 2 weeks after administration. Type of experiment: in vivo. Here is the method:
as §1

Experiment [5] concerns the target T2, skin chymase (Mus musculus, UniProt P21812).
T2 construct: Chymase was extracted from the skin according to the method described previously; from tissue; host or cells: skin of Tsk mice
T2 sequence (P21812 21-246): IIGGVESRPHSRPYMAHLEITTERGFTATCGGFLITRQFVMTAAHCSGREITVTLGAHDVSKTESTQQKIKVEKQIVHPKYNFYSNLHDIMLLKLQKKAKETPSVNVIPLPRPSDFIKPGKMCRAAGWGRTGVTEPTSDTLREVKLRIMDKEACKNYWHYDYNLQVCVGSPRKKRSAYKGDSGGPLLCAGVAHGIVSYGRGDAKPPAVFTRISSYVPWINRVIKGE
Kind of experiment: Tsk mice, model for scleroderma: skin chymase activity. Format: in vivo. To be noted: 50 mg/kg/day i.p. once a day for 2 weeks, 13-week old Tsk mice, 5 hours after final administration. The method, then:
(§2) A chymase inhibitor (Compound 18) was administered intraperitoneally in ICR mice (8 weeks old, n=3). After 12 hours and 24 hours, the chymase was extracted from the small intestines, tongues, back skins, front legs, and rear legs of the mice and the enzymatic activity thereof was determined. The chymase was extracted using a 10 mM phosphate buffer including 2M KCl and 0.1% polyethylene octylphenyl ether (Triton X-100) from the tissues. Chymase activity was determined, by measuring the rate of hydrolysis of synthesized substrate Suc-Phe-Pro-Phe-p-nitroanilide. Saline was administered in 24 hours in control groups.
Collagen content, thickness of subcutaneous fibrous layer, mast cell number, chymase activity and chymase mRNA were measured in the skin of Tsk mice (Rheum. Dis. Clin. North Am. 16, 153, 1990), and compared with the control mice (pallid mice) at the ages of 5, 10, and 20 weeks (n=6). The collagen content was determined by measuring hydroxyproline, the marker for collagen, using HPLC, whereas fibrous layer thickness was determined by histological analysis with Azan staining followed by measuring the area of the fibrous layer using an image analysis system. The density of mast cells was calculated by counting the number of cells with stained granules by toluidine blue staining. […]

The test system of experiment [6] is chymase. Kind of experiment: Effects of chymase inhibitor on chymase activity in tissues of mice after intraperitoneal administration. Format: in vivo. As to conditions: ICR mice, 12 and 24 hours after administration. Here is the method: as §2
Experiment [7] deals with Tsk mice. Kind of experiment: Tsk mice, model for scleroderma: thickness of subcutaneous fibrous layer. Format: in vivo. To be noted: 50 mg/kg/day i.p. once a day for 2 weeks, 13-week old Tsk mice. The method, then: Collagen content, thickness of subcutaneous fibrous layer, mast cell number, chymase activity and chymase mRNA were measured in the skin of Tsk mice (Rheum. Dis. Clin. North Am. 16, 153, 1990), and compared with the control mice (pallid mice) at the ages of 5, 10, and 20 weeks (n=6). The collagen content was determined by measuring hydroxyproline, the marker for collagen, using HPLC, whereas fibrous layer thickness was determined by histological analysis with Azan staining followed by measuring the area of the fibrous layer using an image analysis system. The density of mast cells was calculated by counting the number of cells with stained granules by toluidine blue staining. Chymase was extracted from the skin according to the method described previously (Arch. Dermatol. Res. 290, 553, 1998), and the activity determined as described in Example 2. The mRNA for the skin chymase (MMCP-4) was measured only at 10 weeks of age by competitive RT-PCR method (Biotechniques 21, 268, 1996).
13-week old Tsk mice (n=5) were intra peritoneally administered a chymase inhibitor (Compound 18) in a dosage of 50 mg/kg/day once a day every day for 2 weeks. Five hours after the final administration, the degree of hypertrophy of the subcutaneous fibrous layer and the skin-chymase activity were measured and compared with the values of the group administered saline. […]

In turn, `COc1ccc(S(=O)(=O)n2c(=O)[nH]c3cc(Cl)ccc3c2=O)cc1NC(C)=O` [Compound 22] displayed an IC50 in experiment [1] of 300 nM.
On the same count and under the same terms, the figure for `COc1ccc2c(=O)n(S(=O)(=O)c3ccc(C(=O)O)c(N)c3)c(=O)[nH]c2c1` [Compound 27, 4-[(7-methoxy-2,4(1H,3H)-quinazolinedion-3-yl)sulfonyl]anthranilic acid] is 4000 nM; for `Nc1ccccc1S(=O)(=O)n1c(=O)[nH]c2cc(Cl)ccc2c1=O` [Compound 2, 3-(2-aminobenzenesulfonyl)-7-chloro-2.4(1H,3H)-quinazolinedione] it is 140 nM.
Consider `CS(=O)(=O)O.Nc1cccc(S(=O)(=O)n2c(=O)[nH]c3cc(Cl)ccc3c2=O)c1` [Compound 34, 3-(3-aminobenzenesulfonyl)-7-chloro-2,4-(1H,3H)quinazolinedion methanesulfonic acid salt], for which, in experiment [1], the IC50 worked out at 360 nM. The “effect on the increase of the amount of hydroxyproline in the lung” value in experiment [2] (10 mg/kg i.p. once a day) is “little effect”. Also, the “rate of suppression of the increase of the amount of hydroxyproline in the lung” value in experiment [2] (50 mg/kg i.p. once a day) is recorded as “about 46%”.
Consider `O=C(O)c1cc(S(=O)(=O)n2c(=O)[nH]c3cc(Cl)ccc3c2=O)ccc1O` [Compound 21, 5-[(7-chloro-2,4(1H,3H)-quinazolinedion-3-yl)sulfonyl]salicylic acid], for which half-maximal inhibition in experiment [1] (IC50) required 340 nM. This counts as sub-micromolar.
Molecule `CC(C(=O)O)C(=O)Nc1cccc(S(=O)(=O)n2c(=O)[nH]c3cc(Cl)ccc3c2=O)c1` (stereo not shown) [Compound 13, 2-{3-[(7-chloro-2,4(1H,3H)-quinazolinedion-3-yl)sulfonyl]phenylaminocarbonyl}propionic acid] had a half-inhibitory concentration (IC50) in experiment [1] of 300 nM.
For the molecule bleomycin, in experiment [3], the “pulmonary chymase activity relative to the group administered saline” value is listed as “about 4.5 times”. Besides, the “hydroxyproline content in the lung as compared with the saline group” value in experiment [4] (bleomycin 0.04 mg/mouse intratracheal) is given as 1.15 fold; in experiment [4] (bleomycin 0.08 mg/mouse intratracheal), 1.25 fold.
Molecule `O=C(O)C1Oc2ccc(S(=O)(=O)n3c(=O)[nH]c4cc(Cl)ccc4c3=O)cc2NC1=O` (racemic) [Compound 29, (±)-6-[(7-chloro-2,4(1H,3H)-quinazolinedion-3-yl)sulfonyl]-3-oxo-1,4-benzoxazine-2-carboxylic acid] showed an IC50 in experiment [1] of 1700 nM. In other words, the single-digit micromolar range.
Take `O=c1[nH]c2cc(Cl)ccc2c(=O)n1S(=O)(=O)c1cccc(O)c1` [Compound 1, 7-chloro-3-(3-hydroxybenzenesulfonyl)-2,4(1H,3H)-quinazolinedione]: inhibition in experiment [1] was half-maximal at 360 nM (IC50).
On the same count and under the same terms, for `Nc1cccc(S(=O)(=O)n2c(=O)[nH]c3cc(Cl)ccc3c2=O)c1` [Compound 12, 3-(3-aminobenzenesulfonyl)-7-chloro-2,4(1H,3H)-quinazolinedione] the value was 440 nM; for `O=C(O)c1ccc(S(=O)(=O)n2c(=O)[nH]c3cc(Cl)ccc3c2=O)cc1O` [Compound 16, 4-[(7-chloro-2,4(1H,3H)-quinazolinedion-3-yl)sulfonyl]salicylic acid monosodium salt], 840 nM.
As for `COc1ccc(S(=O)(=O)n2c(=O)[nH]c3cc(Cl)ccc3c2=O)cc1NS(C)(=O)=O` [Compound 24, 7-chloro-3-(4-methoxy-3-methylsulfonylaminobenzenesulfonyl)-2,4(1H,3H)-quinazolinedione], the IC50 in experiment [1] came to 320 nM.
Molecule `Nc1cc(S(=O)(=O)n2c(=O)[nH]c3cc(Cl)ccc3c2=O)ccc1Cl` [Compound 8, 3-(3-amino-4-chlorobenzenesulfonyl)-7-chloro-2,4(1H,3H)-quinazolinedione] returned an IC50 in experiment [1] of 35 nM. This IC50 lies about 9.1-fold lower than the previous one.
Same read-out and setting: the figure for `Nc1cc(S(=O)(=O)n2c(=O)[nH]c3ccc(Cl)cc3c2=O)ccc1C(=O)O` [Compound 32, 4-[(6-chloro-2,4(1H,3H)-quinazolinedion-3-yl)sulfonyl]anthranilic acid] is 1500 nM.
For `Nc1cc(S(=O)(=O)n2c(=O)[nH]c3cc(Cl)ccc3c2=O)ccc1C(=O)[O-].[Na+]` [Compound 18, 4-[(7-chloro-2,4(1H,3H)-quinazolinedion-3-yl)sulfonyl]anthranilic acid monosodium salt], the “skin chymase activity, % of that of the group administered saline” value in experiment [5] is 57%. The same molecule gave an IC50 in experiment [1] of 140 nM. Moreover, the “inhibition of chymase activity in the intestines compared with the group administered saline” value in experiment [6] (small intestines) was “approximately 80%”. Also, in experiment [6] (tongue, back skin, legs), the “inhibition of chymase activity in the tongue, back skin, and legs” value is listed as “about 50%”. The “thickness of the subcutaneous fibrous layer, % of that for the group administered saline” value in experiment [7] is “about 60%”.
As to `Nc1cc(S(=O)(=O)n2c(=O)[nH]c3cc(Cl)ccc3c2=O)ccc1C(=O)O` [Compound 17, 4-[(7-chloro-2,4(1H,3H)-quinazolinedion-3-yl)sulfonyl]anthranilic acid], half-maximal inhibition in experiment [1] (IC50) was put at 140 nM. That is a sub-micromolar value.
On the same count and under the same terms, for `Cc1ccc(S(=O)(=O)n2c(=O)[nH]c3cc(Cl)ccc3c2=O)cc1N` [Compound 10, 3-(3-amino-4-methylbenzenesulfonyl)-7-chloro-2,4(1H,3H)-quinazolinedione] the value was 170 nM.
